Patent US7700786B2, “Pyrazole derivative, intermediate therefor, processes for producing these, and herbicide containing these as active ingredient” (Sagami Chemical Research Center, priority 2001, dated 2010)

Structure (SMILES) | melting point
Cc1cc(Oc2c(Cl)cc(C(F)(F)F)cc2Cl)nn1C(=O)NCC=O [Example 229, N-formylmethyl-3-(2,6-dichloro-4-trifluoromethylphenyloxy)-5-methylpyrazole-1-carboxamide] | 111 to 113 °C
CCNC(=O)n1nc(Oc2ccc(F)cc2[N+](=O)[O-])cc1C [Example 85, N-ethyl-3-(4-fluoro-2-nitrophenyloxy)-5-methylpyrazole-1-carboxamide] | 81 to 84 °C
CNC(=O)n1nc(Oc2ccc(C(F)(F)F)cc2[N+](=O)[O-])c(C)c1C | 117 to 119 °C
CCc1c(Oc2ccc([N+](=O)[O-])cc2C(F)(F)F)nn(C(=O)NC)c1C | 96 to 97 °C
CNC(=O)n1nc(Oc2ccc(C(F)(F)F)cc2[N+](=O)[O-])cc1C(F)(F)F | 102 to 104 °C
COCNC(=S)n1nc(Oc2c(Cl)cc(C(F)(F)F)cc2Cl)cc1C [Example 178, N-methoxymethyl-3-(2,6-dichloro-4-trifluoromethylphenyloxy)-5-methylpyrazole-1-carbothioamide] | 95 to 96 °C
CCNC(=O)n1nc(Oc2ccc([N+](=O)[O-])c(C)c2)cc1C [Example 96, N-ethyl-5-methyl-3-(3-methyl-4-nitrophenyloxy)pyrazole-1-carboxamide] | 67 to 69 °C
CCNC(=O)n1nc(Oc2ccc(N)c(C(F)(F)F)c2)cc1C [Example 100, N-ethyl-3-(4-amino-3-trifluoromethylphenyloxy)-5-methylpyrazole-1-carboxamide] | 102 to 104 °C
Cc1cc(Oc2ncc(C(F)(F)F)cc2Cl)nn1C(=O)N(C)C [Compound 4-10, N,N-Dimethyl-3-(3-chloro-5-trifluoromethylpyridin-2-yloxy)-5-methylpyrazole-1-carboxamide] | 102 to 104 °C
Cc1c(Oc2ncc(C(F)(F)F)cc2Cl)nn(C(=O)NC(C)C)c1C [Compound 4-82, N-isopropyl-3-(3-chloro-5-trifluoromethylpyridin-2-yloxy)-4,5-dimethylpyrazole-1-carboxamide] | 78 to 80 °C
CNC(=O)n1nc(Oc2c(Cl)cc(C(F)(F)F)cc2Cl)cc1C | 113 to 114 °C
CCNC(=O)n1nc(Oc2c(Cl)cc(C(F)(F)F)cc2Cl)cc1C(=O)OC [Example 175, methyl 3-(2,6-dichloro-4-trifluoromethylphenyloxy)-1 (N-ethylcarbamoyl)pyrazole-5-carboxylate] | 88 to 90 °C
Cc1cc(Oc2ccc(C(F)(F)F)cc2[N+](=O)[O-])n[nH]1 [Compound 1-44, 5-methyl-3-(2-nitro-4-trifluoromethylphenyloxy)pyrazole] | 89 to 91 °C
CNC(=O)n1nc(Oc2ncc(C(F)(F)F)cc2Cl)cc1C(F)(F)F [Compound 4-91, N-methyl-3-(3-chloro-5-trifluoromethylpyridin-2-yloxy)-5-trifluoromethylpyrazole-1-carboxamide] | 61 to 63 °C
CNC(=O)n1nc(Oc2ccc([N+](=O)[O-])cc2C(F)(F)F)c(Cl)c1C [Example 245, N-methyl-4-chloro-5-methyl-3-(4-nitro-2-trifluoromethylphenyloxy)pyrazole-1-carboxamide] | 157 to 158 °C
CCCNC(=O)n1nc(Oc2c(Cl)cc(C(F)(F)F)cc2Cl)cc1C(Cl)(Cl)Cl [Example 250, N-propyl-3-(2,6-dichloro-4-trifluoromethylphenyloxy)-5-trichloromethylpyrazole-1-carboxamide] | 89 to 91 °C
CCc1c(Oc2ccc(C(F)(F)F)cc2[N+](=O)[O-])nn(C(=O)NC)c1C | 81 to 82 °C
Cc1cc(Oc2ccc(C(F)(F)F)cc2[N+](=O)[O-])nn1C(=O)NC(C)(C)C [Example 86, N-tert-butyl-5-methyl-3-(2-nitro-4-trifluoromethylphenyloxy)-pyrazole-1-carboxamide] | 104 to 106 °C
